For one compound, Activity results are on record in ChEMBL document CHEMBL2074154, “Modulation of the function of P-glycoprotein by estramustine” (J Natl Cancer Inst, 1994).

The target in this series is ATP-dependent translocase ABCB1 (Homo sapiens, UniProt P08183). Nature of the series: TP_TRANSPORTER: increase in Vinblastine intracellular accumulation (Vinblastine: 1 uM, Estramustine: 50 uM) in SKVLB 1 cells. In kind it is functional, cell-based. The conditions noted are these: skvlb 1, 50 µM.
Sequence of ATP-dependent translocase ABCB1 (P08183 whole entry): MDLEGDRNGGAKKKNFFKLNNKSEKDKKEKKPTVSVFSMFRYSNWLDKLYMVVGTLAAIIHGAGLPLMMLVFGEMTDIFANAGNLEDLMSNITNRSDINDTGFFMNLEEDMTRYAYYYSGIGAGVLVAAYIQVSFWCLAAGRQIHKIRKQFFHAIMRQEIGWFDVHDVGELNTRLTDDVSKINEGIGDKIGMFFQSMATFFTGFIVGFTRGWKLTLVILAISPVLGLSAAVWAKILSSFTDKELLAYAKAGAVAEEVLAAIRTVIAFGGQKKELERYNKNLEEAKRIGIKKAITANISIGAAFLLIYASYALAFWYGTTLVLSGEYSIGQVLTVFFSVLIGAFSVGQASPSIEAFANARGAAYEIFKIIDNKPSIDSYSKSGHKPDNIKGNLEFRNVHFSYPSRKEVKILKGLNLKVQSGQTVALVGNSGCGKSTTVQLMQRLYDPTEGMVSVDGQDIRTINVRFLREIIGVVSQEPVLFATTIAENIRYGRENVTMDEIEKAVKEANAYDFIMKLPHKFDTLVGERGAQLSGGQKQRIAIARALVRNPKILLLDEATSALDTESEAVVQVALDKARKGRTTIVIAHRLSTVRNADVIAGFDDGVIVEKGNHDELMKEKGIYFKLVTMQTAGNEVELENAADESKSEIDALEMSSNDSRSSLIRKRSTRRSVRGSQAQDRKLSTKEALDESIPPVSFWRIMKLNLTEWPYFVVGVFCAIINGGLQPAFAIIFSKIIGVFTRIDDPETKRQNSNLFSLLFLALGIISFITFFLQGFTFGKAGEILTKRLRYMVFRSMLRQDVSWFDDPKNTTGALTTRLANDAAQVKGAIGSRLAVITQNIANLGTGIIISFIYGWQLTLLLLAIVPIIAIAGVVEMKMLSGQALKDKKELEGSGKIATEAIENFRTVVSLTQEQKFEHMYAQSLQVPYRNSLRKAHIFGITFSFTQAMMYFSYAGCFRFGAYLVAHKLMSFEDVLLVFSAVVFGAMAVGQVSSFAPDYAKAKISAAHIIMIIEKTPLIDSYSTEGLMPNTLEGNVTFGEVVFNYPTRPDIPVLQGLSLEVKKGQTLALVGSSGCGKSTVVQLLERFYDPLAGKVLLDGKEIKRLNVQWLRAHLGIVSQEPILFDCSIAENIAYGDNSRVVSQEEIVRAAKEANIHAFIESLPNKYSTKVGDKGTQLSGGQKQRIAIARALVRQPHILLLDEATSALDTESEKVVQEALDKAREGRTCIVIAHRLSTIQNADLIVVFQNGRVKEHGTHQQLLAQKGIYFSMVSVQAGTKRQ

Molecules are shown by their SMILES.

For `C[C@]12CC[C@@H]3c4ccc(OC(=O)N(CCCl)CCCl)cc4CC[C@H]3[C@@H]1CC[C@@H]2O` [ESTRAMUSTINE], the Activity result is “inhibitor [+]”.
